Results as given in patent US20030125287A1, “Antisense oligonucleotides and methods to induce tumor cell death” (Hybridon, Inc., priority 2001, published 2003).
“Also recorded” adds a separate entry of the source. Oligonucleotides are written 5' to 3', each unit as a sugar letter and its base; * is a phosphorothioate linkage, no mark a phosphodiester; rarer units and linkages stand in square brackets, end groups in braces. Plain capitals give the bases only. d = 2'-deoxy (DNA)

Columns and labels:
Assay type in all cases: cell-based, human
[1] = test system: TC620 cells; experiment: TUNEL assay in TC620 cells
Description: To confirm the results of the PARP data that survivin down-regulation induced apoptosis, a TUNEL assay was performed. The TUNEL reaction preferentially labels cleaved genomic DNA generated during apoptosis, by the addition of fluorescein dUTP at strand breaks. The TUNEL assay was performed on lipofectin, mismatch oligonucleotide 1132, and survivin antisense oligonucleotide-treated TC620 cells. The percentages of TUNEL-positive cells treated with survivin antisense oligonucleotides 904 or 906 at 400 nM concentration were 52% and 54%, respectively. At 600 nM, 63% of survivin antisense oligonucleotide 904- and 906-treated TC620 cells were TUNEL-positive. Only 4% of the cells were TUNEL-positive in the presence of lipofectin or mismatch oligonucleotide 1132.
The TUNEL assay was performed to assess apoptotic cell death in survivin antisense oligonucleotide-treated TC620 cells using the In Situ Cell Death Detection Kit, Fluorescein (Roche Molecular Biochemicals, Indianapolis, Ind.). The TUNEL reaction preferentially labels cleaved genomic DNA generated during apoptosis, by the addition of fluorescein dUTP at strand breaks. Lipofectin, mismatch oligonucleotide 1132 or survivin antisense oligonucleotide-treated TC620 cells were fixed and permeabilized as described for PI staining. Cells were washed and incubated in the TUNEL reaction mixture, prepared according to the manufacture's recommendations, for 1 h at 37° C. Omission of the terminal deoxynucleotidyl transferase in the label solution served as a negative control for the TUNEL fluorescence staining. Cells were washed twice and counterstained with the DNA specific dye DAPI (1:1000 of a 1 mg/ml stock; 15 min at room temperature). Cells were examined with an Olympus 1×70 inverted microscope. For each treatment 15 random, 40×objective fields consisting of about 1000 cells were examined in duplicate chamber slides. TUNEL-positive nuclei were expressed as a percent of the total number of cells per individual field.

[2] = test system: TC620 cells; experiment: Propidium iodide staining, nuclear morphology of TC620 cells; settings: for nuclear morphology by PI staining: 600 nM (FIG. 7); for number of cells in metaphase, with zVAD-fmk compared with oligonucleotide alone: 600 nM plus zVAD-fmk (FIG. 8B)
Description: Propidium iodide (PI) staining was performed to investigate changes in nuclear morphology caused by treatment of TC620 cells with survivin antisense oligonucleotides. […] TC620 cells were treated with lipofectin (FIG. 7A), or 600 nM mismatch oligonucleotide 1132 (FIG. 7B), survivin antisense oligonucleotide 904 (FIGS. 7C and 7E), or 906 (FIG. 7D), and stained with PI. Quantification results for TC620 cells treated with 600 nM survivin antisense oligonucleotide 904, 906, or mismatch oligonucleotide 1132, alone or in the presence of zVAD-fmk, are shown in FIGS. 8A-B. Cells in metaphase were identified as those with chromosomes aligned on the metaphase plate.
Survivin antisense oligonucleotide-treated cells were fixed with 4% paraformaldehyde for 30 min at room temperature, washed with 1×TBS, permeabilized with 0.1% Triton X-100 for 30 min and treated with 10 μg/ml DNasc free RNase A (Sigma) for 60 min. Nuclei were stained with 200 μg /ml PI for 30 min at 4° C. and washed twice with 1×TBS. Nuclear morphology was assessed on an inverted Olympus 1×70 fluorescence microscope equipped with phase and epifluorescence optics. For each treatment about 600 nuclei were scored as normal, condensed (apoptotic), or abnormal (macronuclei, multilobed) on 15 random, 40×objective fields in duplicate. Quantification results are mean±SEM obtained from two independent experiments performed in duplicate.

[3] = test system: TC620 cells; experiment: Trypan blue assay (cell death) in TC620 cells
Description: At 100 nM, 200 nM, and 400 nM, the percentage of dead cells was 28%, 36%, and 62%, respectively. The percentages of Trypan blue-positive cells treated with 200 nM (8%) and 400 nM (7.5%) mismatched oligonucleotide 1132 were similar to the lipofectin control (6%). Cells were treated with lipofectin, survivin antisense oligonucleotide 904 at 100, 200, or 400 nM, or mismatched oligonucleotide 1132 at 200 nM or 400 nM concentrations. Cells were harvested 48 hours after the treatment and stained with 0.04% Trypan blue as described for FIG. 4.
To further examine whether cell death induced by treatment of TC620 cells with survivin antisense oligonucleotides occurs via a caspase-dependent mechanism, another experiment was performed to investigate the effect of a caspase inhibitor on cell death. […] TC620 cells were treated with lipofectin or 600 nM survivin antisense oligonucleotide 904, 906, or mismatch oligonucleotide 1132 alone, or co-treated with 20 μM zVAD-fmk.
(§1) Cells were harvested 48 hours after survivin antisense treatment, stained with 0.04% Trypan blue (GIBCO), and counted on a hemocytometer. The number of Trypan blue positive cells relative to the total number of cells in each field was obtained and the data were expressed as a percentage of dead cells relative to the total cell number. Individual experiments were performed in triplicate. MSN cell studies were performed three times, while studies in TC620 cells were performed once.

[4] = test system: MSN cells; experiment: Trypan blue assay (cell death) in MSN cells; settings: for percentage of cells Trypan blue positive: MSN cells
Description: The role of survivin as an inhibitor of apoptosis and as a survival protein for tumors was investigated by examining whether the down-regulation of survivin was sufficient to induce cell death in MSN cells. Following transfection with lipofectin, different concentrations of survivin antisense oligonucleotide 904 (200 nM, 400 nM, 600 nM), or the mismatched oligonucleotide 1132 (400 nM and 600 nM), the number of Trypan blue positive cells (only dead cells are stained by the Trypan blue stain) were counted 48 hours after treatment. The number of dead cells was assessed relative to the lipofectin-treated control cells. In the presence of 200 nM, 400 nM, and 600 nM concentrations of antisense oligonucleotide 904, the percentage of cells that were Trypan blue positive were 52%, 59% and 62%, respectively (FIG. 4A). The mismatched oligonucleotide 1132 (400 nM and 600 nM) was similar to the lipofectin control treatment, wherein 23% (400 nM) and 22% (600 nM) of the cells were Trypan blue-positive. About 6% of the cells in the untreated control were Trypan blue positive.
In another experiment, following transfection with lipofectin, mismatched oligonucleotide 1132 (600 nM), or survivin antisense oligonucleotide 904 or 906 (600 nM), the numbers of Trypan blue positive cells (dead cells) were counted 48 h post-treatment. In the presence of 600 nM survivin antisense oligonucleotide 904 and 906, the percentages of cells that were Trypan blue positive were 73% and 81%, respectively (FIG. 4B). Upon treatment with lipofectin or the mismatched oligonucleotide 1132, only 7-11% of the cells were Trypan blue positive.
Further experiments were conducted to examine whether survivin antisense oligonucleotide-induced cell death could be blocked by the broad-spectrum caspase inhibitor zVAD-fmk. MSN cells were treated with lipofectin or 600 nM survivin antisense oligonucleotide 904, 906, or mismatch oligonucleotide 1132 alone, or co-treated with 20 μM zVAD-fmk for 48 h, and stained with 0.04% Trypan blue.
as §1

[5] = 600 nM co-treated with 20 μM zVAD-fmk (FIG. 6B)
[6] = 600 nM co-treated with 20 μM zVAD-fmk, 48 h (FIG. 4B)

Row | Substance | percentage of TUNEL-positive cells ([1]; concentration not given) | nuclear morphology by PI staining [2] | percentage of apoptotic cells (chromatin fragmentation, apoptotic bodies) by PI staining ([2]; 600 nM (FIG. 8A)) | percentage of cells with abnormal (multiple multilobed) nuclei by PI staining ([2]; 600 nM (FIG. 8A)) | number of cells in metaphase, with zVAD-fmk compared with oligonucleotide alone [2] | percentage of dead (Trypan blue-positive) cells ([3]; 200 nM, 48 hours (FIG. 6A)) | percentage of dead (Trypan blue-positive) cells ([3]; 400 nM, 48 hours (FIG. 6A)) | percentage of cells Trypan blue positive ([4]; 400 nM, 48 hours (FIG. 4A)) | percentage of cells Trypan blue positive ([4]; 600 nM alone, 48 h (FIG. 4B)) | percentage of cells Trypan blue positive ([4]; 600 nM, 48 hours (FIG. 4A)) | percentage of TUNEL-positive cells ([1]; 400 nM) | percentage of TUNEL-positive cells ([1]; 600 nM) | percentage of Trypan blue positive cells ([3]; 600 nM alone (FIG. 6B)) | percentage of Trypan blue positive cells [3, 5] | percentage of cells Trypan blue positive [4, 6] | percentage of dead (Trypan blue-positive) cells ([3]; 100 nM, 48 hours (FIG. 6A)) | cell death, Trypan blue positive cells ([3]; 48 hours (FIG. 6A)) | cell death, Trypan blue positive cells ([4]; MSN cells (FIG. 4A)) | percentage of cells Trypan blue positive ([4]; 200 nM, 48 hours (FIG. 4A))
1 | d(GCACCTAGTCTCCCTGCACC) (DNA, all phosphorothioate, methylation of C not given here) [Oligo 1132, mismatched phosphorothioate control oligonucleotide, not complementary to survivin mRNA, reference compound] | 4% | normal nuclear morphology | 2% | 1% | did not affect the number of cells in metaphase | 8% | 7.5% | 23% | 7-11% | 22% | – | – | – | – | – | – | – | – | –
2 | d(GCTTCCCAGTCACATCCTGT) (antisense dG*dC*dT*dT*dC*dC*dC*dA*dG*dT*dC*dA*dC*dA*dT*dC*dC*dT*dG*dT) [Oligo 906, 20-mer phosphorothioate survivin antisense oligonucleotide, complementary to survivin mRNA 11897-11916] | – | abnormal macronuclei that are multilobed | – | – | approximate two-fold increase | – | – | – | 81% | – | 54% | 63% | 67% | 15% | 74% | – | – | – | –
3 | d(TCTTGGCTCTTTCTCTGTCC) (antisense dT*dC*dT*dT*dG*dG*dC*dT*dC*dT*dT*dT*dC*dT*dC*dT*dG*dT*dC*dC) [Oligo 904, 20-mer phosphorothioate survivin antisense oligonucleotide, complementary to survivin mRNA 5248-5267] | – | apoptotic nuclei; also recorded: abnormal macronuclei that are multilobed | – | – | approximate two-fold increase | 36% | 62% | 59% | 73% | 62% | 52% | 63% | 70% | 11% | 73% | 28% | concentration-dependent increase in Trypan blue-positive (dead) cells; also recorded: dose-dependent increase in cell death | dose-dependent increase in cell death | 52%
